Tests used:
rhLCMT-1 = molecular target: T1, rhLCMT-1 (Homo sapiens, UniProt Q9UIC8); test: rhLCMT-1 activity assay (dot immunoblot); format: biochemical; conditions: each inhibitor 50 μM; 20 μM SAM; 37° C. for 30 minutes
T1 construct: purchased SignalChem (Richmond, British Columbia, Canada)
Procedure: Recombinant human LCMT-1 (rhLCMT-1) and rhPP2Ac were obtained from SignalChem (Richmond, British Columbia, Canada). Methyltransferase assays were performed with 100 ng rhLCMT-1 and 91.62 ng rhPP2Ac (2:1 molar ratio) (28) in reaction buffer containing 20 mM Tris (pH 8.0), 50 mM NaCl, 1 mM EDTA. rhLCMT-1 was incubated with Compound 1 (Chemspace, San Jose, California), Compound 2 (Akos Consulting and Solutions, Amtsgericht, Freiburg, Germany) or sinefungin, a SAM analogue, (Active Motif, Carlsbad, California), each at 50 μM final concentration, for 10 minutes at room temperature. rhPP2Ac was added to the reactions with 20 μM (final concentration) SAM (New England Biolabs, Ipswich, Massachusetts, FIG. 9). […] Reactions were incubated at 37° C. for 30 minutes (FIG. 10). Because the inhibitors gave false positive results with the secondary reactions used in colorimetric and bioluminescent methyltansferase assays, LCMT-1 activity was assessed using dot immunoblots. Reactions were applied to nitrocellulose membranes (Cytiva, Marlborough, Massachusetts). […] Membranes were treated with infrared (IR)-dye anti-mouse antibody (Li-Cor, Lincoln, Nebraska, catalog #926-32210, 1:20,000 dilution) and densities were measured with Li-Cor Image Studio (version 5.2) software. rhLCMT-1 inhibition assays were performed three times, each time with five replicates for each condition.

MCF7 cells = test: Western blots; format: cell-based, human; conditions: 20 μM
Procedure: (§1) MCF7, MDA-MB-231 and Rosi cells were treated with Compound 1 or Compound 2 at a concentration of 20 μM in complete medium, and lysates were harvested after 2, 4, 6, 8 and 12 hours in radioimmunoprecipitation assay buffer containing protease inhibitors (Boster Bio, Pleasanton, California, catalog #AR1182-1) and phosphatase inhibitors (Santa Cruz Biotechnology catalog #sc-45044 and #sc-45045). Protein concentrations were measured with a bicinchoninic acid assay (G-Biosciences, Saint Louis, Missouri). Fifty micrograms of each lysate were used for bis-tris polyacrylamide gel electrophoresis. Resolved lysates were transferred to nitrocellulose membranes. Membranes were blocked with TBS with 5% bovine serum albumin before incubation with primary antibodies.
(§2) Antibodies obtained from Cell Signaling Technology (Danvers Massachusetts) were, anti-PP2Ac (catalog #2038, 1:1,000 dilution), anti-phospho-adenosine monophosphate-activated protein kinase (pAMPKα2 threonine 172, catalog #2535, 1:1,000 dilution). Antibodies obtained from Proteintech (Rosemont, Illinois) include anti-phospho-receptor-interacting serine/threonine protein kinase-1 antibodies (pRIPK1 serine 161 (catalog #66854-1-Ig, 1:1,000 dilution) and pRIPK1 serine 166 (catalog #28252-1-AP, 1:10,000 dilution), anti-mixed lineage kinase domain like pseudokinase (MLKL, catalog #66675-1-Ig, 1:5,000 dilution), anti-AMPKα2, anti-phospho-acetyl-coenzyme A carboxylase (pACC1 serine 79, catalog #29119-1-AP, 1:1,000 dilution), anti-ACC1 (catalog #21923-1-AP, 1:2,000 dilution) and anti-β-actin (catalog #66009-1-Ig, 1:50,000 dilution). The anti-RIPKI antibody was obtained from AbClonal (Woburn, Massachusetts, catalog #A7414, 1:750 dilution). The anti-phospho-MLKL antibody was obtained from R&D Systems (Minneapolis, Minnesota, 1:1,000 dilution). The LCMT-1 antibody was obtained from Origene (Rockville, Maryland, catalog #TA503127S, 1:2,000 dilution). Appropriate IR-dye secondary antibodies were used (Alexa Fluor® 790-conjugated anti-mouse (catalog #115-655-146, 1:50,000 dilution), Alexa Fluor® 680-conjugated anti-mouse (catalog #115-625-146, 1:50,000 dilution), and Alexa Fluor® 680-conjugated anti-rabbit (catalog #115-625-144, 1:50,000 dilution) were obtained from Jackson ImmunoResearch Laboratories (West Grove, Pennsylvania). Band densities were normalized to β-actin, the endogenous control. At least five replicates were used for statistical analyses.

Rosi cells = test: Western blots; format: cell-based, human; conditions: 20 μM
Procedure: as §1, §2

MDA-MB-231 cells = test: Western blots; format: cell-based, human; conditions: 20 μM
Procedure: as §1, §2

A549 cells = test: Cytotoxicity assay (CellTiter 96 AQeous); format: cell-based; conditions: Homo sapiens, 48 hours
Procedure: (§3) MCF7, MDA-MB-231, 501-MEL, Rosi, A549, SCC-15, SCC-25, UM-SCC-12, UM-SCC-14a, UM-SCC-49 and UM-SCC69 cells were seeded in 96-well tissue culture plates (Corning, New York) at a density of 2.5×10^3 cells/well. After 24 hours, the media were changed to media with LCMT-li (ChemSpace, Monmouth Junction, New Jersey) at various concentrations (0.78-200 μM). Control cells were given fresh media. After 48 hours cell viability was assessed using CellTiter 96® AQeous Non-Radioactive Cell Proliferation Assays (Promega Corporation, Madison Wisconsin). Plates were read after 4 hours with a GloMax® Discover plate reader (Promega Corporation, Madison Wisconsin). The cytotoxicity assays were performed at least twice, each time with eight replicates per condition.
(§4) Statistical analyses were performed with GraphPad Prism software (version 10.4.1). Effective concentrations that inhibited 50% of cells (EC50, log agonist versus response) were estimated with nonlinear fit curves. Absorbance values for cytotoxity assays and relative densities for Western blot assays were compared using Kruskal-Wallis analyses of variance with Dunn's correction for multiple comparisons. For flow cytometric analyses, two-way analyses of variance with Tukey's correction for multiple comparisons were used.

SCC-15 cells = test: Cytotoxicity assay (CellTiter 96 AQeous); format: cell-based; conditions: Homo sapiens, 48 hours
Procedure: as §3, §4

501-MEL cells = test: Cytotoxicity assay (CellTiter 96 AQeous); format: cell-based; conditions: Homo sapiens, 48 hours
Procedure: as §3, §4

UM-SCC-69 cells = test: Cytotoxicity assay (CellTiter 96 AQeous); format: cell-based; conditions: Homo sapiens, 48 hours
Procedure: as §3, §4

UM-SCC-14a cells = test: Cytotoxicity assay (CellTiter 96 AQeous); format: cell-based; conditions: Homo sapiens, UMSCC14A, 48 hours
Procedure: as §3, §4

T1 sequence (Q9UIC8 whole entry): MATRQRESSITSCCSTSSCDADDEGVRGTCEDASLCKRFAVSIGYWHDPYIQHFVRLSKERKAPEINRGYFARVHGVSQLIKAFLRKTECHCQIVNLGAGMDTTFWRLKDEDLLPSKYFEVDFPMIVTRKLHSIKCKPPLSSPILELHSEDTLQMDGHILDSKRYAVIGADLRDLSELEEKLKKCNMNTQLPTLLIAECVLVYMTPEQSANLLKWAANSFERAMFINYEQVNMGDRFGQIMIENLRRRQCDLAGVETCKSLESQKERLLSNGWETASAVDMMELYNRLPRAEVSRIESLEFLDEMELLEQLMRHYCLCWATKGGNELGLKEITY

SMILES: COC(=O)c1c(NC(=O)c2ccccc2C)sc(C(=O)Nc2cccc(C)c2)c1C [Compound 2, methyl 4-methyl-2-[(2-methylbenzoyl)amino]-5-[[(3-methylphenyl)amino]carbonyl]-3-thiophenecarboxylate]
- methylation of rhPP2Ac by rhLCMT-1 (rhLCMT-1): inhibited methylation of rhPP2Ac to the same degree as the SAM analogue sinefungin
- RIPK1 phosphorylation at serine 161 (MCF7 cells): did not statistically increase
- phosphorylation of ACC1 (MCF7 cells): increased phosphorylation of ACC1
- phosphorylation of AMPK (MCF7 cells): Increased phosphorylation of AMPK was not found
- phosphorylation of MLKL (MCF7 cells): Increased phosphorylation of MLKL was noted
- cytosolic PP2Ab expression (MCF7 cells; after 4-6 hours of exposure): decreased cytosolic PP2Ab expression
- PP2Ac methylation (MCF7 cells; lysates after 2, 4, 6, 8 and 12 hours): did not significantly decrease methylation of PP2Ac
- RIPK1 phosphorylation at serine 161 (Rosi cells): increased RIPK1 phosphorylation at serine 161
- phosphorylation of ACC1 (Rosi cells): increased phosphorylation of ACC1
- phosphorylation of AMPK (Rosi cells): Increased phosphorylation of AMPK was not found
- phosphorylation of MLKL (Rosi cells): Increased phosphorylation of MLKL was noted
- PP2Ac methylation (Rosi cells; Compound 2 significant at 6 hours): decreased PP2Ac methylation
- cytosolic PP2Ab expression (Rosi cells; after 4-6 hours of exposure): decreased cytosolic PP2Ab expression
- RIPK1 phosphorylation at serine 161 (MDA-MB-231 cells): increased RIPK1 phosphorylation at serine 161
- cytosolic PP2Ab expression (MDA-MB-231 cells): did not change cytosolic expression PP2Ab
- phosphorylation of AMPK (MDA-MB-231 cells): Increased phosphorylation of AMPK was not found
- phosphorylation of MLKL (MDA-MB-231 cells): not in MDA-MB-231 cells
- PP2Ac methylation (MDA-MB-231 cells; Compound 2 significant at 4 hours): decreased PP2Ac methylation
- EC50 (A549 cells): 41.4 µM
- EC50 (SCC-15 cells): 4.26 µM
- EC50 (501-MEL cells): 60.6 µM
- EC50 (UM-SCC-69 cells): 2.49 µM
- EC50 (UM-SCC-14a cells): 26.4 µM

— US20250320190A1, “Novel Inhibitors of Leucine Carboxyl Methyltransferase-1 (LCMT-1) and Methods of Use Thereof” (Temple University-Of The Commonwealth System of Higher …, priority 2024, published 2025)
